Test results taken from patent US20240239842A1 (CHUGAI SEIYAKU KABUSHIKI KAISHA, priority 2021, published 2024).
Starred links: 1 amine or outer side, 2 acyl side, 3 side chain; linkers in the order of their positions; H or OH if unused. Positions of bridges follow the written chain, without caps; N, C: chain ends. Non-standard residues stand in square brackets, D forms with d. Residues, ends and D or L forms follow the SMILES beside them. *: point of attachment. hPhe(3-Cl-4-CF3) = N[C@@H](CCc1ccc(C(F)(F)F)c(Cl)c1)C(=O)O; X1 = CN([C@@H](CC1CCC(F)(F)CC1)C(=O)[*:2])[*:1]; NMePhe(4-Me) = CN[C@@H](Cc1ccc(C)cc1)C(=O)O; X4 = C#Cc1cccc(C[C@H](N[*:1])C(=O)[*:2])c1; X5 = O=C([C@H](Cc1cccc(F)c1F)N[*:1])[*:2]; Phe(3-I) = N[C@@H](Cc1cccc(I)c1)C(=O)O; X2 = CC(C)=CC[C@H](N[*:1])C(=O)[*:2]; NMeY = CN[C@@H](Cc1ccc(O)cc1)C(=O)O; NMeCha = CN[C@@H](CC1CCCCC1)C(=O)O; X6 = O=C(CN(CCN1CCNCC1)[*:1])[*:2]; X3 = C[C@H](CN(C)[*:1])C(=O)[*:2]; NMeChg = CN[C@H](C(=O)O)C1CCCCC1; NMeF = CN[C@@H](Cc1ccccc1)C(=O)O; Gly(cBu) = N[C@H](C(=O)O)C1CCC1; NMeD = CN[C@@H](CC(=O)O)C(=O)O; NMeL = CN[C@@H](CC(C)C)C(=O)O; NMehSer = CN[C@@H](CCO)C(=O)O; NMeV = CN[C@H](C(=O)O)C(C)C; d(β3hA) = C[C@@H](N)CC(=O)O; NMeS = CN[C@@H](CO)C(=O)O; Pip = O=C(O)[C@@H]1CCCCN1; NMeA = CN[C@@H](C)C(=O)O; NMeAib = CNC(C)(C)C(=O)O; Nle = CCCC[C@H](N)C(=O)O; Piperidide = C1CCN(*)CC1; Ac5c = NC1(C(=O)O)CCCC1; Aze = O=C(O)[C@@H]1CCN1; Sar = CNCC(=O)O

Experiments:
wild type KRAS(WT) = wild type KRAS(WT) (Homo sapiens, UniProt P01116); experiment: Surface plasmon resonance (SPR) binding to wild type KRAS; conditions: SPR Biacore 8K+, Single Cycle Kinetics, 30° C., 10 μM GDP, 1:1 binding model; read-out: Dissociation Constant KD (nM) for Wild Type KRAS
mutant KRAS (G12D) = mutant KRAS (G12D) (Homo sapiens, UniProt P01116, G12D); experiment: Surface plasmon resonance (SPR) binding to mutant KRAS (G12D); conditions: SPR Biacore 8K+, Single Cycle Kinetics, 30° C., 10 μM GDP, 1:1 binding model; read-out: Dissociation Constant KD (nM) for Mutant KRAS (G12D)

Compound	Kd (wild type KRAS(WT)) [nM]	Kd (mutant KRAS (G12D)) [nM]
CC(C)=CC[C@@H]1NC(=O)[C@H](Cc2cccc(I)c2)NC(=O)CN(C)C(=O)[C@H](CC2CCC(F)(F)CC2)N(C)C(=O)[C@@H]2CCN2C(=O)[C@@H]2CCCCN2C(=O)[C@H](C2CCC2)NC(=O)[C@H](CC(C)C)N(C)C(=O)C[C@@H](C(=O)N2CCCCC2)N(C)C(=O)[C@H](CC(C)C)NC(=O)[C@H](Cc2ccccc2)N(C)C1=O [Compound 2, (1S,6S,9S,15S,18S,21S,24S,27S,31S,34S)-21-benzyl-34-cyclobutyl-9-[(4,4-difluorocyclohexyl)methyl]-15-[(3-iodophenyl)methyl]-24,31-diisobutyl-8,11,20,26,30-pentamethyl-18-(3-methylbut-2-enyl)-27-(piperidine-1-carbonyl)-3,8,11,14,17,20,23,26,30,33,36-undecazatricyclo[34.4.0.03,6]tetracontane-2,7,10,13,16,19,22,25,29,32,35-undecanone] ([NMeL][Gly(cBu)][Pip][Aze][X1][Sar][Phe(3-I)][X2][NMeF]L[NMeD]-Piperidide; lactam N-11)	44	4.4
CCCC[C@@H]1NC(=O)[C@H](Cc2cccc(I)c2)NC(=O)CN(C)C(=O)[C@H](Cc2ccc(C)cc2)N(C)C(=O)CN(C)C(=O)CN(C)C(=O)[C@H]([C@@H](C)CC)NC(=O)[C@H](CCOC)N(C)C(=O)C[C@@H](C(=O)N2CCCCC2)N(C)C(=O)[C@H](CC(C)C)NC(=O)[C@H](COC)N(C)C1=O [Compound 3, (3S,6S,9S,12S,18S,27S,30S,34S)-9-butyl-12-[(3-iodophenyl)methyl]-3-isobutyl-30-(2-methoxyethyl)-6-(methoxymethyl)-1,7,16,19,22,25,31-heptamethyl-27-[(1S)-1-methylpropyl]-34-(piperidine-1-carbonyl)-18-(p-tolylmethyl)-1,4,7,10,13,16,19,22,25,28,31-undecazacyclotetratriacontane-2,5,8,11,14,17,20,23,26,29,32-undecanone] ([NMehSer](Me)I[Sar][Sar][NMePhe(4-Me)][Sar][Phe(3-I)][Nle][NMeS](Me)L[NMeD]-Piperidide; lactam N-11)	43	2.9
C#Cc1cccc(C[C@@H]2NC(=O)CN(C)C(=O)[C@H](CC3CCCCC3)N(C)C(=O)CN(C)C(=O)CN(C)C(=O)[C@H]([C@@H](C)CC)NC(=O)[C@H](C)CN(C)C(=O)C[C@@H](C(=O)N3CCCCC3)N(C)C(=O)[C@H](CC(C)C)NC(=O)C(C)(C)N(C)C(=O)[C@H](Cc3ccc(OC)cc3)NC2=O)c1 [Compound 4, (3S,9S,12S,18S,27S,30R,35S)-18-(cyclohexylmethyl)-12-[(3-ethynylphenyl)methyl]-3-isobutyl-9-[(4-methoxyphenyl)methyl]-1,6,6,7,16,19,22,25,30,32-decamethyl-27-[(1S)-1-methylpropyl]-35-(piperidine-1-carbonyl)-1,4,7,10,13,16,19,22,25,28,32-undecazacyclopentatriacontane-2,5,8,11,14,17,20,23,26,29,33-undecaone] ([X3]I[Sar][Sar][NMeCha][Sar][X4]Y(Me)[NMeAib]L[NMeD]-Piperidide; lactam N-11)	23	1.5
CCCC[C@@H]1NC(=O)[C@H](Cc2cccc(F)c2F)NC(=O)CN(C)C(=O)[C@H](Cc2ccc(OC)cc2)N(C)C(=O)[C@@H]2CCN2C(=O)[C@@H]2CCCCN2C(=O)[C@H](C2CCC2)NC(=O)[C@H](CC(C)C)N(C)C(=O)C[C@@H](C(=O)N2CCCCC2)N(C)C(=O)[C@H](CC(C)C)NC(=O)C(C)(C)N(C)C1=O [Compound 5, (1S,6S,9S,15S,18S,24S,27S,31S,34S)-18-butyl-34-cyclobutyl-15-[(2,3-difluorophenyl)methyl]-24,31-diisobutyl-9-[(4-methoxyphenyl)methyl]-8,11,20,21,21,26,30-heptamethyl-27-(piperidine-1-carbonyl)-3,8,11,14,17,20,23,26,30,33,36-undecazatricyclo[34.4.0.03,6]tetracontane-2,7,10,13,16,19,22,25,29,32,35-undecaone] ([NMeL][Gly(cBu)][Pip][Aze][NMeY](Me)[Sar][X5][Nle][NMeAib]L[NMeD]-Piperidide; lactam N-11)	19	3.6
CC[C@H](C)[C@@H]1NC(=O)[C@H](CC(C)C)N(C)C(=O)C[C@@H](C)NC(=O)[C@H](C(C)C)N(C)C(=O)C2(CCCC2)NC(=O)[C@@H]2CCCN2C(=O)[C@H](CCc2ccc(C(F)(F)F)c(Cl)c2)NC(=O)CN(C)C(=O)[C@H](CC2CCCCC2)N(C)C(=O)[C@@H]2CCN2C(=O)[C@H](C)N(C)C1=O [Compound 6, (3S,9S,12S,17S,20S,23S,27R,30S,36S)-3-[2-[3-chloro-4-(trifluoromethyl)phenyl]ethyl]-9-(cyclohexylmethyl)-23-isobutyl-30-isopropyl-7,10,17,18,24,27,31-heptamethyl-20-[(1S)-1-methylpropyl]spiro[1,4,7,10,15,18,21,24,28,31,34-undecazatricyclo[34.3.0.012,15]nonatriacontane-33,1′-cyclopentane]-2,5,8,11,16,19,22,25,29,32,35-undecaone] (cyclo([Ac5c][NMeV][d(β3hA)][NMeL]I[NMeA][Aze][NMeCha][Sar][hPhe(3-Cl-4-CF3)]P))	16	21
CC[C@H](C)[C@@H]1NC(=O)[C@H](CC(C)C)N(C)C(=O)C[C@@H](C(=O)N2CCCCC2)N(C)C(=O)[C@H](C2CCCCC2)N(C)C(=O)C2(CCCC2)NC(=O)CN(CCN2CCNCC2)C(=O)[C@H](CCc2ccc(C(F)(F)F)c(Cl)c2)NC(=O)CN(C)C(=O)[C@H](CC2CCCCC2)N(C)C(=O)CN(C)C(=O)CN(C)C1=O [Compound 7, (11S,17S,26S,29S,33S,36S)-11-[2-[3-chloro-4-(trifluoromethyl)phenyl]ethyl]-36-cyclohexyl-17-(cyclohexylmethyl)-29-isobutyl-15,18,21,24,30,34,37-heptamethyl-26-[(1 S)-1-methylpropyl]-9-(2-piperazine-1-ylethyl)-33-(piperidine-1-carbonyl)-6,9,12,15,18,21,24,27,30,34,37-undecazaspiro[4.33]octatriacontane-7,10,13,16,19,22,25,28,31,35,38-undecaone, reference compound] ([NMeL]I[Sar][Sar][NMeCha][Sar][hPhe(3-Cl-4-CF3)][X6][Ac5c][NMeChg][NMeD]-Piperidide; lactam N-11)	0.94	0.18
